{
  "source": "the supplement of paper PMC13207355",
  "settings_in_all_cases": "exposure time: 72 h",
  "key": {"[1]": {"tested_on": "E13 (patient-derived glioblastoma stem cells of classical subtype)", "test": "surviving fraction (nuclei count normalised to DMSO); higher = more cells surviving (less toxic)"}, "[2]": {"tested_on": "E21 (patient-derived glioblastoma stem cells of mesenchymal subtype)", "test": "surviving fraction (nuclei count normalised to DMSO); higher = more cells surviving (less toxic)"}, "[3]": {"tested_on": "E28 (patient-derived glioblastoma stem cells of classical subtype)", "test": "surviving fraction (nuclei count normalised to DMSO); higher = more cells surviving (less toxic)"}, "[4]": {"tested_on": "E31 (patient-derived glioblastoma stem cells of proneural subtype)", "test": "surviving fraction (nuclei count normalised to DMSO); higher = more cells surviving (less toxic)"}, "[5]": {"tested_on": "E34 (patient-derived glioblastoma stem cells of proneural subtype)", "test": "surviving fraction (nuclei count normalised to DMSO); higher = more cells surviving (less toxic)"}, "[6]": {"tested_on": "E57 (patient-derived glioblastoma stem cells of mesenchymal subtype)", "test": "surviving fraction (nuclei count normalised to DMSO); higher = more cells surviving (less toxic)"}, "[7]": {"tested_on": "FT3469 (normal neural stem cell line)", "test": "surviving fraction (nuclei count normalised to DMSO); higher = more cells surviving (less toxic)"}, "[8]": {"tested_on": "E13", "test": "phenotypic distance (Euclidean, principal components) from DMSO controls (arbitrary units); higher = stronger morphological change"}, "[9]": {"tested_on": "E21", "test": "phenotypic distance (Euclidean, principal components) from DMSO controls (arbitrary units); higher = stronger morphological change"}, "[10]": {"tested_on": "E28", "test": "phenotypic distance (Euclidean, principal components) from DMSO controls (arbitrary units); higher = stronger morphological change"}, "[11]": {"tested_on": "E31", "test": "phenotypic distance (Euclidean, principal components) from DMSO controls (arbitrary units); higher = stronger morphological change"}, "[12]": {"tested_on": "E34", "test": "phenotypic distance (Euclidean, principal components) from DMSO controls (arbitrary units); higher = stronger morphological change"}, "[13]": {"tested_on": "E57", "test": "phenotypic distance (Euclidean, principal components) from DMSO controls (arbitrary units); higher = stronger morphological change"}, "[14]": {"tested_on": "FT3469", "test": "phenotypic distance (Euclidean, principal components) from DMSO controls (arbitrary units); higher = stronger morphological change"}},
  "data": [
    {"smiles": "COC(=O)Nc1nc2cc(C(=O)c3ccccc3)ccc2[nH]1", "note": "[Mebendazole]", "values": [
      {"measurement": "surviving fraction", "setting": "[1]; 4.1 nM", "value": 0.79},
      {"measurement": "surviving fraction", "setting": "[1]; 12.3 nM", "value": 0.88},
      {"measurement": "surviving fraction", "setting": "[1]; 37 nM", "value": 0.816},
      {"measurement": "surviving fraction", "setting": "[1]; 111.1 nM", "value": 0.465},
      {"measurement": "surviving fraction", "setting": "[1]; 333.3 nM", "value": 0.22},
      {"measurement": "surviving fraction", "setting": "[1]; 1000 nM", "value": 0.203},
      {"measurement": "surviving fraction", "setting": "[1]; 3000 nM", "value": 0.221},
      {"measurement": "surviving fraction", "setting": "[2]; 4.1 nM", "value": 0.964},
      {"measurement": "surviving fraction", "setting": "[2]; 12.3 nM", "value": 0.942},
      {"measurement": "surviving fraction", "setting": "[2]; 37 nM", "value": 0.868},
      {"measurement": "surviving fraction", "setting": "[2]; 111.1 nM", "value": 0.707},
      {"measurement": "surviving fraction", "setting": "[2]; 333.3 nM", "value": 0.138},
      {"measurement": "surviving fraction", "setting": "[2]; 1000 nM", "value": 0.144},
      {"measurement": "surviving fraction", "setting": "[2]; 3000 nM", "value": 0.187},
      {"measurement": "surviving fraction", "setting": "[3]; 4.1 nM", "value": 1.01},
      {"measurement": "surviving fraction", "setting": "[3]; 12.3 nM", "value": 0.992},
      {"measurement": "surviving fraction", "setting": "[3]; 37 nM", "value": 0.943},
      {"measurement": "surviving fraction", "setting": "[3]; 111.1 nM", "value": 0.731},
      {"measurement": "surviving fraction", "setting": "[3]; 333.3 nM", "value": 0.444},
      {"measurement": "surviving fraction", "setting": "[3]; 1000 nM", "value": 0.288},
      {"measurement": "surviving fraction", "setting": "[3]; 3000 nM", "value": 0.426},
      {"measurement": "surviving fraction", "setting": "[4]; 4.1 nM", "value": 0.817},
      {"measurement": "surviving fraction", "setting": "[4]; 12.3 nM", "value": 0.859},
      {"measurement": "surviving fraction", "setting": "[4]; 37 nM", "value": 0.71},
      {"measurement": "surviving fraction", "setting": "[4]; 111.1 nM", "value": 0.417},
      {"measurement": "surviving fraction", "setting": "[4]; 333.3 nM", "value": 0.132},
      {"measurement": "surviving fraction", "setting": "[4]; 1000 nM", "value": 0.1},
      {"measurement": "surviving fraction", "setting": "[4]; 3000 nM", "value": 0.114},
      {"measurement": "surviving fraction", "setting": "[5]; 4.1 nM", "value": 0.922},
      {"measurement": "surviving fraction", "setting": "[5]; 12.3 nM", "value": 0.961},
      {"measurement": "surviving fraction", "setting": "[5]; 37 nM", "value": 0.917},
      {"measurement": "surviving fraction", "setting": "[5]; 111.1 nM", "value": 0.664},
      {"measurement": "surviving fraction", "setting": "[5]; 333.3 nM", "value": 0.432},
      {"measurement": "surviving fraction", "setting": "[5]; 1000 nM", "value": 0.403},
      {"measurement": "surviving fraction", "setting": "[5]; 3000 nM", "value": 0.384},
      {"measurement": "surviving fraction", "setting": "[6]; 4.1 nM", "value": 1},
      {"measurement": "surviving fraction", "setting": "[6]; 12.3 nM", "value": 1.06},
      {"measurement": "surviving fraction", "setting": "[6]; 37 nM", "value": 0.876},
      {"measurement": "surviving fraction", "setting": "[6]; 111.1 nM", "value": 0.784},
      {"measurement": "surviving fraction", "setting": "[6]; 333.3 nM", "value": 0.148},
      {"measurement": "surviving fraction", "setting": "[6]; 1000 nM", "value": 0.0727},
      {"measurement": "surviving fraction", "setting": "[6]; 3000 nM", "value": 0.092},
      {"measurement": "surviving fraction", "setting": "[7]; 4.1 nM", "value": 0.984},
      {"measurement": "surviving fraction", "setting": "[7]; 12.3 nM", "value": 1.02},
      {"measurement": "surviving fraction", "setting": "[7]; 37 nM", "value": 0.772},
      {"measurement": "surviving fraction", "setting": "[7]; 111.1 nM", "value": 0.663},
      {"measurement": "surviving fraction", "setting": "[7]; 333.3 nM", "value": 0.648},
      {"measurement": "surviving fraction", "setting": "[7]; 1000 nM", "value": 0.56},
      {"measurement": "surviving fraction", "setting": "[7]; 3000 nM", "value": 0.566},
      {"measurement": "phenotypic distance", "setting": "[8]; 4.1 nM", "value": 1.43},
      {"measurement": "phenotypic distance", "setting": "[8]; 12.3 nM", "value": 1.24},
      {"measurement": "phenotypic distance", "setting": "[8]; 37 nM", "value": 2.04},
      {"measurement": "phenotypic distance", "setting": "[8]; 111.1 nM", "value": 4.4},
      {"measurement": "phenotypic distance", "setting": "[8]; 333.3 nM", "value": 7.15},
      {"measurement": "phenotypic distance", "setting": "[8]; 1000 nM", "value": 6.93},
      {"measurement": "phenotypic distance", "setting": "[8]; 3000 nM", "value": 7.2},
      {"measurement": "phenotypic distance", "setting": "[9]; 4.1 nM", "value": 1.49},
      {"measurement": "phenotypic distance", "setting": "[9]; 12.3 nM", "value": 1.54},
      {"measurement": "phenotypic distance", "setting": "[9]; 37 nM", "value": 1.52},
      {"measurement": "phenotypic distance", "setting": "[9]; 111.1 nM", "value": 2.75},
      {"measurement": "phenotypic distance", "setting": "[9]; 333.3 nM", "value": 7.72},
      {"measurement": "phenotypic distance", "setting": "[9]; 1000 nM", "value": 7.67},
      {"measurement": "phenotypic distance", "setting": "[9]; 3000 nM", "value": 6.82},
      {"measurement": "phenotypic distance", "setting": "[10]; 4.1 nM", "value": 0.755},
      {"measurement": "phenotypic distance", "setting": "[10]; 12.3 nM", "value": 0.838},
      {"measurement": "phenotypic distance", "setting": "[10]; 37 nM", "value": 1.05},
      {"measurement": "phenotypic distance", "setting": "[10]; 111.1 nM", "value": 2.06},
      {"measurement": "phenotypic distance", "setting": "[10]; 333.3 nM", "value": 3.8},
      {"measurement": "phenotypic distance", "setting": "[10]; 1000 nM", "value": 4.27},
      {"measurement": "phenotypic distance", "setting": "[10]; 3000 nM", "value": 4.73},
      {"measurement": "phenotypic distance", "setting": "[11]; 4.1 nM", "value": 1.27},
      {"measurement": "phenotypic distance", "setting": "[11]; 12.3 nM", "value": 0.909},
      {"measurement": "phenotypic distance", "setting": "[11]; 37 nM", "value": 1.1},
      {"measurement": "phenotypic distance", "setting": "[11]; 111.1 nM", "value": 2.77},
      {"measurement": "phenotypic distance", "setting": "[11]; 333.3 nM", "value": 5.6},
      {"measurement": "phenotypic distance", "setting": "[11]; 1000 nM", "value": 5.55},
      {"measurement": "phenotypic distance", "setting": "[11]; 3000 nM", "value": 4.51},
      {"measurement": "phenotypic distance", "setting": "[12]; 4.1 nM", "value": 0.931},
      {"measurement": "phenotypic distance", "setting": "[12]; 12.3 nM", "value": 0.785},
      {"measurement": "phenotypic distance", "setting": "[12]; 37 nM", "value": 1.36},
      {"measurement": "phenotypic distance", "setting": "[12]; 111.1 nM", "value": 2.23},
      {"measurement": "phenotypic distance", "setting": "[12]; 333.3 nM", "value": 3.56},
      {"measurement": "phenotypic distance", "setting": "[12]; 1000 nM", "value": 3.98},
      {"measurement": "phenotypic distance", "setting": "[12]; 3000 nM", "value": 6.31},
      {"measurement": "phenotypic distance", "setting": "[13]; 4.1 nM", "value": 1.09},
      {"measurement": "phenotypic distance", "setting": "[13]; 12.3 nM", "value": 0.846},
      {"measurement": "phenotypic distance", "setting": "[13]; 37 nM", "value": 1.77},
      {"measurement": "phenotypic distance", "setting": "[13]; 111.1 nM", "value": 2.71},
      {"measurement": "phenotypic distance", "setting": "[13]; 333.3 nM", "value": 5.36},
      {"measurement": "phenotypic distance", "setting": "[13]; 1000 nM", "value": 5.62},
      {"measurement": "phenotypic distance", "setting": "[13]; 3000 nM", "value": 4.64},
      {"measurement": "phenotypic distance", "setting": "[14]; 4.1 nM", "value": 0.995},
      {"measurement": "phenotypic distance", "setting": "[14]; 12.3 nM", "value": 0.806},
      {"measurement": "phenotypic distance", "setting": "[14]; 37 nM", "value": 0.927},
      {"measurement": "phenotypic distance", "setting": "[14]; 111.1 nM", "value": 2.1},
      {"measurement": "phenotypic distance", "setting": "[14]; 333.3 nM", "value": 3.21},
      {"measurement": "phenotypic distance", "setting": "[14]; 1000 nM", "value": 3.43},
      {"measurement": "phenotypic distance", "setting": "[14]; 3000 nM", "value": 3.34}
    ]}
  ]
}
